We go through 17 compounds from US7501410B2, “Methods of inhibiting BTK and SYK protein kinases” (Roche Palo Alto LLC, priority 2006, dated 2009).

Values joined by “and” are separate entries in the source; they are usually repeats but may differ in a detail not shown here. Equal values may be shown once. Read-outs that look alike come from different tables or passages of the source. Bounds are passed on as bounds.

Experiment [1] concerns the target T1, Bruton's Tyrosine Kinase (Btk) (Homo sapiens, UniProt Q06187).
T1 construct: 5-10 nM Btk enzyme (His-tagged, full-length); His tag
The experiment in a line: Determination of IC50 of Bruton's Tyrosine Kinase (Btk) inhibition, 33P filtration assay. Type of experiment: biochemical. To be noted: His-tagged full-length Btk, 100 μM ATP. An excerpt: Determination of IC50 of Bruton's Tyrosine Kinase (Btk) Inhibition
The assay is a capture of radioactive ^33P phosphorylated product through filtration. The interactions of Btk, biotinylated SH2 peptide substrate (Src homology), and ATP lead to phosphorylation of the peptide substrate. Biotinylated product is bound streptavidin sepharose beads. All bound, radiolabeled products are detected by scintillation counter.
Plates assayed are 96-well polypropylene (Greiner) and 96-well 1.2 μm hydrophilic PVDF filter plates (Millipore). Concentrations reported here are final assay concentrations: 10-100 μM compounds in DMSO (Burdick and Jackson), 5-10 nM Btk enzyme (His-tagged, full-length), 30 μM peptide substrate (Biotin-Aca-[…]-NH2), 100 μM ATP (Sigma), 8 mM imidazole (Sigma, pH 7.2), 8 mM glycerol-2-phosphate (Sigma), 200 μM EGTA (Roche Diagnostics), 1 mM MnCl2 (Sigma), 20 mM MgCl2 (Sigma), 0.1 mg/ml BSA (Sigma), 2 mM DTT (Sigma), 1 μCi ^33P ATP (Amersham), 20% streptavidin sepharose beads (Amersham), 50 mM EDTA (Gibco), 2 M NaCl (Gibco), 2 M NaCl w/1% phosphoric acid (Gibco), microscint-20 (Perkin Elmer).
IC50 determinations are calculated from 10 data points per compound utilizing data produced from a standard 96-well plate assay template. One control compound and seven unknown inhibitors were tested on each plate and each plate was run twice. Typically, compounds were diluted in half-log starting at 100 μM and ending at 3 nM. The control compound was staurosporine. Background was counted in the absence of peptide substrate. Total activity was determined in the presence of peptide substrate. The following protocol was used to determine BTK inhibition.
1) Sample preparation: The test compounds were diluted at half-log increments in assay buffer (imidazole, glycerol-2-phosphate, EGTA, MnCl2, MgCl2, BSA).
2) Bead preparation • a.) rinse beads by centrifuging at 500 g • b.) reconstitute the beads with PBS and EDTA to produce a 20% bead slurry
3) Pre-incubate reaction mix without substrate (assay buffer, DTT, ATP, ^33P ATP) and mix with substrate (assay buffer, DTT, ATP, ^33P ATP, peptide substrate) 30° C. for 15 min.
4) To start assay, pre-incubate 10 μL BTK in enzyme buffer (imidazole, glycerol-2-phosphate, BSA) and 10 μL of test compounds for 10 min at RT.
5) Add 30 μL reaction mixture without or with substrate to BTK and compounds.
6) Incubate 50 μL total assay mix for 30 min at 30° C.
7) Transfer 40 μL of assay to 150 μL bead slurry in filter plate to stop reaction.
8) Wash filter plate after 30 min, with following steps • a. 3 ×250 μL NaCl • b. 3×250 μL NaCl containing 1% phosphoric acid • c. 1×250 μL H2O
9) Dry plate for 1 h at 65° C. or overnight at RT
10) Add 50 μL microscint-20 and count ^33P cpm on scintillation counter.
Calculate percent activity from raw data in cpm percent activity=(sample−bkg)/(total activity−bkg)×100

The target in experiment [2] is T2, Spleen Tyrosine Kinase (SYK) aa 360-635 (Homo sapiens, UniProt P43405).
T2 construct: truncated construct of Spleen Tyrosine Kinase aa 360-635; made in house
The experiment in a line: Determination of IC50 of Spleen Tyrosine Kinase (SYK) inhibition, 33P kinase assay. As to conditions: recombinant human SYK360-635, 20 μM ATP. Type of experiment: biochemical. Here is the method: Determination of IC50 of Spleen Tyrosine Kinase (SYK) Inhibition
The SYK kinase assay is a standard kinase assay adapted to a 96 well plate format. This assay is performed in 96-well format for IC50 determination with 8 samples which represented 10 half log dilutions and a 40 μL reaction volume. The assay measures the incorporation of radiolabeled ^33P γATP into an N-terminally biotinylated peptide substrate, derived from naturally occurring phosphoacceptor consensus sequence (Biotin-11aa DY*E). Phosphorylated products were detected upon termination of reactions with EDTA and the addition of Streptavidin coated beads. • Assay plates: 96-well MultiScreen 0.65 um filter plates (Millipore Cat. No.: MADVNOB10) • Streptavidin coated beads: Streptavidin Sepharose TM, suspension 5.0 mL, in 50 mM EDTA/PBS diluted (1:100), (Amersham, Cat. No.: 17-5113-01) • Compounds: 10 mM in 100% dimethylsulfoxide (DMSO), final conc.: compound 0.003-100 uM in 10% DMSO • Enzyme: SYK RPA purified, truncated construct of Spleen Tyrosine Kinase aa 360-635, stock solution 1 mg/mL, MW: 31.2 KDa, final conc.:0.0005 μM. • Peptide 1: biotinylated peptide is derived from a naturally occurring phosphor-acceptor consensus sequence (Biotin-[…]), special order from QCB, stock solution 20 mM, final conc.: 5.0 μM. • ATP: Adenosine-5′-triphosphate 20 mM, (ROCHE Cat. No.:93202720), final concentration: 20 μM • Buffer: HEPES: 2-Hydroxyethyl piperazine-2-ethanesulfonic acid (Sigma, Cat. No.: H-3375) final concentration: 50 mM HEPES pH7.5 • BSA: Bovine Serum Albumin Fraction V, fatty acid free (Roche Diagnostics GmbH, Cat. No. 9100221) diluted to a final concentration of 0.1% • EDTA: EDTA stock solution 500 mM, (GIBCO, Cat. No.: 15575-038) final concentration: 0.1 mM • DTT: 1,4-Dithiothreitol (Roche Diagnostics GmbH, Cat. No.: 197777), final conc.: 1 mM • MgCl2×6H2O: MERCK, Cat. No.: 105833.1000, final concentration: 10 mM • Assay Dilution Buffer (ADB): 50 mM HEPES, 0.1 mM EGTA, 0.1 mM Na Vanadate, 0.1 mM β-glycerophosphate, 10 mM MgCl2, 1 mM DTT, 0,1% BSA, pH 7.5 • Bead wash buffer: 10 g/L PBS (Phosphate buffered saline) with 2M NaCl+1% phosphoric acid Experimental Method:
In 40 μL volume, 26 μL of ADB diluted, purified recombinant human SYK360-635 [0.5 nM] was mixed with 4 μL of 10× concentrations of the test compounds, [usually 100 μM-0.003 μM] in [10%] DMSO and the mixture was incubated for 10 min at RT.
The kinase reaction was initiated by the addition of 10 μL 4× substrate cocktail containing the DYE peptide substrate [0 or 5 μM], ATP [20 μM] and […] [2 μCi/rxn]. After incubation at 30° C. for 15 min, the reaction was terminated by the transfer of 25 μL of the reaction sample to a 96 well 0.65 um Millipore MADVNOB membrane/plate containing 200 μL 5 mM EDTA and 20% Streptavidine coated beads in PBS.
The unbound radionucleotides were washed under vacuum with 3×250 μL 2M NaCl; 2×250 μL 2M NaCl+1% phosphoric acid; 1×250 μL H2O. After the last wash membrane/plates were transferred to an adaptor plate, heat dried for 15 min at 60° C., and 50 μL scintillation cocktail was added to each well and 4 h later the amount of radioactivity was counted in a top counter.
The IC50 was calculated using a non-linear curve fit with XLfit software (ID Business Solution Ltd., Guilford, Surrey, UK). […] Representative results are in Table 1.

T1 sequence (Q06187 whole entry): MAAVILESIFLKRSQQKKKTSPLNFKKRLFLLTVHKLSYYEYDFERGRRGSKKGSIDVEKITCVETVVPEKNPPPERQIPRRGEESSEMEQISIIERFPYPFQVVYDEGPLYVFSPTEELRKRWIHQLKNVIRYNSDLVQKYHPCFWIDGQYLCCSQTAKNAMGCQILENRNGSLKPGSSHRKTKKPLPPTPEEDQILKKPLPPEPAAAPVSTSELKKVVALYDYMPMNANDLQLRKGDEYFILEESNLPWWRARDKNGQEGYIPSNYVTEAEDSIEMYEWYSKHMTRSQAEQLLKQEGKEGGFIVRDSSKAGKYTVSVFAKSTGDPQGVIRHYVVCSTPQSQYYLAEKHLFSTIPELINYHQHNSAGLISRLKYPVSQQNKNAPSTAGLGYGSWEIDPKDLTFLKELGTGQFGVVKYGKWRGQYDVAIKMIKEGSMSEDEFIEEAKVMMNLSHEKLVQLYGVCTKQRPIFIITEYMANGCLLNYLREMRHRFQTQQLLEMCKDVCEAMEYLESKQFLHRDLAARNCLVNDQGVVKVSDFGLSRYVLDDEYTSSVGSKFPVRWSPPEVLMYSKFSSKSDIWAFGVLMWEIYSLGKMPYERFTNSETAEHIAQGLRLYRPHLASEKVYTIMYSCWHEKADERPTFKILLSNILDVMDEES

Take `Cc1cc(Nc2nn(-c3ccc(Cl)cc3)c(=O)c3ccccc23)n[nH]1` [Example B-1, 2-(4-Chloro-phenyl)-4-(5-methyl-1H-pyrazol-3-ylamino)-2H-phthalazin-1-one]: the concentration for half-maximal inhibition (IC50) (usually the midpoint of a concentration-inhibition curve) in experiment [1] was 5.03 µM; in experiment [2] (read-out: IC50 (μM) SYK Assay) it was 1.19 µM.

For `Cc1cc(Nc2nn(C(C)C)c(=O)c3cc(F)ccc23)n[nH]1` [Example E-2, 7-Fluoro-2-isopropyl-4-(5-methyl-1H-pyrazol-3-ylamino)-2H-phthalazin-1-one], the results for the 50% inhibitory concentration (IC50) in experiment [1] and in experiment [2] (read-out: IC50 (μM) SYK Assay) were 9.53 µM and 7.61 µM, respectively.

With `Cc1cc(Nc2nn(C(C)C)c(=O)c3ccc(F)cc23)n[nH]1` [Example E-3, 6-Fluoro-2-isopropyl-4-(5-methyl-1H-pyrazol-3-ylamino)-2H-phthalazin-1-one], the IC50 in experiment [1] came to 58.2 µM; in experiment [2] (read-out: IC50 (μM) SYK Assay), 87.5 µM.

For the compound `Cc1cc(Nc2nn(CC(=O)c3ccccc3)c(=O)c3ccccc23)n[nH]1` [Example E-9, 4-(5-methyl-1H-pyrazol-3-ylamino)-2-(2-oxo-2-phenyl-ethyl)-2H-phthalazin-1-one], the half-maximal inhibitory concentration (IC50) came to 10.4 µM in experiment [1] and 7.67 µM in experiment [2] (read-out: IC50 (μM) SYK Assay).

For the compound `Cc1cc(Nc2nn(C(C)C)c(=O)c3ccc(N4CCOCC4)cc23)n[nH]1` [Example F-2, 2-Isopropyl-4-(5-methyl-1H-pyrazol-3-ylamino)-6-morpholino-2H-phthalazin-1-one], the 50% inhibitory concentration (IC50) in experiment [1] was over 100 µM; in experiment [2] (read-out: IC50 (μM) SYK Assay), 36.4 µM.

For `Cc1cc(Nc2nn(C(C)C)c(=O)c3ccc(N(C)C)cc23)n[nH]1` [Example F-7, 2-Isopropyl-4-(5-methyl-1H-pyrazol-3-ylamino)-6-dimethylamino-2H-phthalazin-1-one], the values for the half-inhibitory concentration (IC50) in experiment [1] and in experiment [2] (read-out: IC50 (μM) SYK Assay) were 14.6 µM and 37.4 µM, respectively.

For `Cc1cc(Nc2nn(C(C)C)c(=O)c3cc(N4CCCCC4)ccc23)n[nH]1` [Example F-10, 2-Isopropyl-4-(5-methyl-1H-pyrazol-3-ylamino)-7-piperidin-1-yl-2H-phthalazin-1-one], the IC50 in experiment [1] is 0.608 µM; in experiment [2] (IC50 (μM) SYK Assay) it was 0.551 µM and 4.3 µM and 3.57 µM.

With `COc1ccc2c(Nc3cc(C)[nH]n3)nn(C(C)C)c(=O)c2c1` [Example G-1, 2-Isopropyl-4-(5-methyl-1H-pyrazol-3-ylamino)-7-methoxy-2H-phthalazin-1-one], the IC50 was found to be 0.724 µM in experiment [1] and 0.793 µM in experiment [2] (read-out: IC50 (μM) SYK Assay).

`Cc1cc(Nc2nn(C(C)C)c(=O)c3cc(O)ccc23)n[nH]1` [Example G-6, 7-Hydroxy-2-isopropyl-4-(5-methyl-1H-pyrazol-3-yl-amino)-2H-phthalazin-1-one]: the IC50 was 1.28 µM in experiment [1] and 2.52 µM in experiment [2] (read-out: IC50 (μM) SYK Assay).

`CSc1ccc2c(Nc3cc(C)[nH]n3)nn(C(C)C)c(=O)c2c1` [Example H-1, 2-Isopropyl-4-(5-methyl-1H-pyrazol-3-ylamino)-7-methylsulfanyl-2H-phthalazin-1-one]: the results for the half-inhibitory concentration (IC50) in experiment [1] and in experiment [2] (read-out: IC50 (μM) SYK Assay) were 4.32 µM and 1.57 µM, respectively.

`Cc1cc(Nc2nn(C(C)C)c(=O)c3cc(S(C)(=O)=O)ccc23)n[nH]1` [Example H-2, 2-Isopropyl-7-methanesulfonyl-4-(5-methyl-1H-pyrazol-3-ylamino)-2H-phthalazin-1-one]: the IC50 in experiment [1] worked out at 1.11 µM; in experiment [2] (read-out: IC50 (μM) SYK Assay), 4.29 µM.

In the case of `Cc1cc(Nc2nn(C(C)C)c(=O)c3cc(N(C)Cc4ccncc4)ccc23)n[nH]1` [Example I-2, 2-Isopropyl-4-(5-methyl-1H-pyrazol-3-ylamino)-7-(methyl-pyridin-4-ylmethyl-amino)-2H-phthalazin-1-one], the IC50 in experiment [1] was found to be 0.231 µM; in experiment [2] (read-out: IC50 (μM) SYK Assay), 0.392 µM.

Regarding `CC(=O)Nc1ccc2c(Nc3cc(C)[nH]n3)nn(C(C)C)c(=O)c2c1` [Example I-8, N-[3-Isopropyl-1-(5-methyl-1H-pyrazol-3-ylamino)-4-oxo-3,4-dihydro-phthalazin-6-yl]-acetamide], the values for the IC50 in experiment [1] and in experiment [2] (read-out: IC50 (μM) SYK Assay) were 2.23 µM and 5.62 µM, respectively.

Consider `Cc1cc(Nc2nn(C(C)C)c(=O)c3cc(C(=O)NC(C)C)ccc23)n[nH]1` [Example M-5, 3-Isopropyl-1-(5-methyl-1H-pyrazol-3-ylamino)-4-oxo-3,4-dihydro-phthalazine-6-carboxylic acid isopropylamide], for which the results for the IC50 in experiment [1] and in experiment [2] (read-out: IC50 (μM) SYK Assay) were 0.769 µM and 2.16 µM, respectively.

Consider `Cc1cc(Nc2nn(C(C)C)c(=O)c3cc(C(=O)OCC4CC4)ccc23)n[nH]1` [Example M-6, 3-Isopropyl-1-(5-methyl-1H-pyrazol-3-ylamino)-4-oxo-3,4-dihydro-phthalazine-6-carboxylic acid cyclopropylmethyl ester], for which the IC50 in experiment [1] stood at 67.7 µM; in experiment [2] (read-out: IC50 (μM) SYK Assay) it was 9.99 µM.

For `Cc1cc(Nc2nn(C(C)C)c(=O)c3cc(CO)ccc23)[nH]n1` [Example M-9, 7-Hydroxymethyl-2-isopropyl-4-(5-methyl-1H-pyrazol-3-ylamino)-2H-phthalazin-1-one], the half-inhibitory concentration (IC50) came to 0.782 µM in experiment [1] and 0.666 µM in experiment [2] (read-out: IC50 (μM) SYK Assay).

Regarding `Cc1cc(Nc2nn(C(C)C)c(=O)c3cc(OCCCS(=O)(=O)N(C)C)ccc23)n[nH]1` [Example ZD-3, 3-[3-Isopropyl-1-(5-methyl-1H-pyrazol-3-ylamino)-4-oxo-3,4-dihydro-phthalazin-6-yloxy]-propane-1-sulfonic acid dimethylamide], the figures for the half-inhibitory concentration (IC50) in experiment [1] and in experiment [2] (read-out: IC50 (μM) SYK Assay) were 0.86 µM and 3.02 µM, respectively.
